Assay results reported in PubChem BioAssay (NCI).
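96-well plates; 48 h exposure; 5 concentrations. Endpoints by linear interpolation between flanking doses. Not reached: highest tested concentration assigned. GI50 marks 50% less growth. The concentration for full growth arrest is given as TGI.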

Legend:
Assay in all cases: growth of human tumour cells (NCI), 48 h
HCC-2998 colon = test system: HCC-2998 colon
MCF7 breast = test system: MCF7 breast
A549 NSCLC = test system: A549 NSCLC
HOP-92 NSCLC = test system: HOP-92 NSCLC
SNB-19 CNS = test system: SNB-19 CNS
COLO 205 colon = test system: COLO 205 colon
UO-31 renal = test system: UO-31 renal
SF-295 CNS = test system: SF-295 CNS
LOX IMVI melanoma = test system: LOX IMVI melanoma
SK-MEL-28 melanoma = test system: SK-MEL-28 melanoma
KM12 colon = test system: KM12 colon

COC1(OC)c2occc2C(=N)c2ccc(=O)oc21
TGI (HCC-2998 colon): > 100 µM
TGI (MCF7 breast): > 100 µM
TGI (A549 NSCLC): > 100 µM
TGI (HOP-92 NSCLC): > 100 µM
TGI (SNB-19 CNS): > 100 µM
TGI (COLO 205 colon): > 100 µM
TGI (UO-31 renal): > 100 µM
TGI (SF-295 CNS): > 100 µM
TGI (LOX IMVI melanoma): > 100 µM
TGI (SK-MEL-28 melanoma): > 100 µM

CCCCCCCCCCCCCCCCCCNc1ccn(C2OC(COP(=O)(O)OCC3OC(n4ccc(N)nc4=O)C(O)C3O)C(O)C2O)c(=O)n1 (configuration not stated)
TGI (HCC-2998 colon): > 100 µM
TGI (MCF7 breast): > 100 µM
TGI (A549 NSCLC): > 100 µM
TGI (HOP-92 NSCLC): > 100 µM
TGI (SNB-19 CNS): > 100 µM
TGI (COLO 205 colon): > 100 µM
TGI (KM12 colon): > 100 µM
TGI (UO-31 renal): > 100 µM
TGI (SF-295 CNS): > 100 µM
TGI (LOX IMVI melanoma): 49.4 µM
TGI (SK-MEL-28 melanoma): > 100 µM

C[C@H]1CC[C@@]2(OC1)O[C@H]1C[C@H]3[C@@H]4CC[C@@H]5C[C@@H](OC6OC(CO)C(O)C(O)C6OC6OC(CO)C(O)C(O)C6O)CC[C@]5(C)[C@H]4CC[C@]3(C)[C@H]1[C@@H]2C (some centres not stated)
TGI (HCC-2998 colon): 3.71 µM
TGI (MCF7 breast): 3.8 µM
TGI (A549 NSCLC): 3.69 µM
TGI (HOP-92 NSCLC): 4.12 µM
TGI (SNB-19 CNS): 3.9 µM
TGI (COLO 205 colon): 3.55 µM
TGI (KM12 colon): 4.62 µM
TGI (UO-31 renal): 3.67 µM
TGI (SF-295 CNS): 3.95 µM
TGI (LOX IMVI melanoma): 3.75 µM

Cn1c(CNc2ccc(-c3n[nH]c(=S)n3C)cc2)n[nH]c1=S
TGI (HCC-2998 colon): > 100 µM
TGI (MCF7 breast): > 100 µM
TGI (A549 NSCLC): > 100 µM
TGI (HOP-92 NSCLC): > 100 µM
TGI (SNB-19 CNS): > 100 µM
TGI (COLO 205 colon): > 100 µM
TGI (KM12 colon): > 100 µM
TGI (UO-31 renal): > 100 µM
TGI (SF-295 CNS): > 100 µM
TGI (LOX IMVI melanoma): > 100 µM
TGI (SK-MEL-28 melanoma): > 100 µM

O=C(Nn1c(-c2ccccc2)nc2ccccc2c1=O)c1ccc(Cl)cc1
TGI (HCC-2998 colon): > 100 µM
TGI (MCF7 breast): > 100 µM
TGI (A549 NSCLC): > 100 µM
TGI (HOP-92 NSCLC): > 100 µM
TGI (SNB-19 CNS): > 100 µM
TGI (KM12 colon): > 100 µM
TGI (UO-31 renal): > 100 µM
TGI (SF-295 CNS): > 100 µM
TGI (LOX IMVI melanoma): > 100 µM
TGI (SK-MEL-28 melanoma): > 100 µM

CCOC(=O)c1c(NC(=O)c2ccccc2)c(C#N)c2n1CCCCC2
TGI (HCC-2998 colon): > 100 µM
TGI (MCF7 breast): > 100 µM
TGI (A549 NSCLC): > 100 µM
TGI (HOP-92 NSCLC): > 100 µM
TGI (SNB-19 CNS): > 100 µM
TGI (COLO 205 colon): > 100 µM
TGI (KM12 colon): > 100 µM
TGI (UO-31 renal): > 100 µM
TGI (SF-295 CNS): > 100 µM
TGI (LOX IMVI melanoma): > 100 µM
TGI (SK-MEL-28 melanoma): > 100 µM

COc1ccc(-c2oc3cc(-c4cc5oc(-c6ccc(OC)cc6)c(-c6ccc(OC)cc6)c5cc4OC)c(OC)cc3c2-c2ccc(OC)cc2)cc1
TGI (HCC-2998 colon): > 100 µM
TGI (MCF7 breast): > 100 µM
TGI (A549 NSCLC): > 100 µM
TGI (HOP-92 NSCLC): > 100 µM
TGI (SNB-19 CNS): > 100 µM
TGI (COLO 205 colon): > 100 µM
TGI (KM12 colon): > 100 µM
TGI (UO-31 renal): > 100 µM
TGI (SF-295 CNS): > 100 µM
TGI (LOX IMVI melanoma): > 100 µM
TGI (SK-MEL-28 melanoma): > 100 µM

CCN1/C(=C/C#C/C(C)=C\c2sc3ccc(Cl)cc3[n+]2CC)Sc2ccc(Cl)cc21
TGI (HCC-2998 colon): 17.6 µM
TGI (MCF7 breast): 15.3 µM
TGI (A549 NSCLC): 22 µM
TGI (HOP-92 NSCLC): 5.52 µM
TGI (SNB-19 CNS): 18.9 µM
TGI (COLO 205 colon): 3.21 µM
TGI (KM12 colon): 19.4 µM
TGI (UO-31 renal): 14.5 µM
TGI (SF-295 CNS): 14.9 µM
TGI (LOX IMVI melanoma): 14.6 µM
TGI (SK-MEL-28 melanoma): 26.5 µM

COC(=O)/C=C(\C(=O)OC)c1cc(C)c2cc(C(C)C)ccc(C)c1-2
TGI (HCC-2998 colon): 87.5 µM
TGI (MCF7 breast): 72.8 µM
TGI (A549 NSCLC): > 100 µM
TGI (HOP-92 NSCLC): 77.9 µM
TGI (SNB-19 CNS): > 100 µM
TGI (COLO 205 colon): > 100 µM
TGI (KM12 colon): > 100 µM
TGI (UO-31 renal): > 100 µM
TGI (SF-295 CNS): > 100 µM
TGI (LOX IMVI melanoma): > 100 µM
TGI (SK-MEL-28 melanoma): > 100 µM

CC1=NN(c2nc(N)nc(C(C)Cl)n2)C(C)(C)C1 (configuration not stated)
TGI (HCC-2998 colon): > 100 µM
TGI (MCF7 breast): > 100 µM
TGI (HOP-92 NSCLC): > 100 µM
TGI (SNB-19 CNS): > 100 µM
TGI (COLO 205 colon): > 100 µM
TGI (KM12 colon): > 100 µM
TGI (UO-31 renal): > 100 µM
TGI (SF-295 CNS): > 100 µM
TGI (LOX IMVI melanoma): > 100 µM
TGI (SK-MEL-28 melanoma): > 100 µM

CN(NC1=NCCO1)c1ccc2ccccc2c1
TGI (HCC-2998 colon): 99.4 µM
TGI (MCF7 breast): > 100 µM
TGI (A549 NSCLC): > 100 µM
TGI (HOP-92 NSCLC): 57.3 µM
TGI (SNB-19 CNS): > 100 µM
TGI (COLO 205 colon): > 100 µM
TGI (KM12 colon): > 100 µM
TGI (UO-31 renal): > 100 µM
TGI (SF-295 CNS): > 100 µM
TGI (LOX IMVI melanoma): > 100 µM
TGI (SK-MEL-28 melanoma): > 100 µM

COC(=O)c1c(C)cccc1/C=C1\Cc2ccc(C)c(C)c2C1=O
TGI (HCC-2998 colon): > 100 µM
TGI (MCF7 breast): > 100 µM
TGI (A549 NSCLC): > 100 µM
TGI (HOP-92 NSCLC): > 100 µM
TGI (SNB-19 CNS): > 100 µM
TGI (KM12 colon): > 100 µM
TGI (UO-31 renal): > 100 µM
TGI (SF-295 CNS): > 100 µM
TGI (LOX IMVI melanoma): > 100 µM
TGI (SK-MEL-28 melanoma): > 100 µM

CSC(=O)/C=C1\SS/C(=C\C(=O)SC)S1
TGI (HCC-2998 colon): 3.33 µM
TGI (MCF7 breast): 9.19 µM
TGI (A549 NSCLC): 19.6 µM
TGI (HOP-92 NSCLC): 7.87 µM
TGI (SNB-19 CNS): 20.7 µM
TGI (COLO 205 colon): 30.6 µM
TGI (KM12 colon): 13 µM
TGI (UO-31 renal): 6.89 µM
TGI (SF-295 CNS): 13.7 µM
TGI (LOX IMVI melanoma): 3.09 µM
TGI (SK-MEL-28 melanoma): 6.34 µM

CC(=O)c1ccc(N=NN2CCCC2)cc1
TGI (HCC-2998 colon): > 100 µM
TGI (MCF7 breast): > 100 µM
TGI (HOP-92 NSCLC): > 100 µM
TGI (SNB-19 CNS): > 100 µM
TGI (COLO 205 colon): > 100 µM
TGI (KM12 colon): > 100 µM
TGI (UO-31 renal): > 100 µM
TGI (SF-295 CNS): > 100 µM
TGI (LOX IMVI melanoma): > 100 µM

O=C1CC(c2cccc(Cl)c2)Nc2ccc(N3CCCC3)cc21 (configuration not stated)
GI50 (HCC-2998 colon): 0.0148 µM
TGI (HCC-2998 colon): 0.0611 µM
GI50 (MCF7 breast): 0.0649 µM
TGI (MCF7 breast): > 100 µM
GI50 (A549 NSCLC): 0.0153 µM
TGI (A549 NSCLC): > 100 µM
GI50 (HOP-92 NSCLC): 0.135 µM
TGI (HOP-92 NSCLC): > 100 µM
TGI (SNB-19 CNS): > 100 µM
GI50 (KM12 colon): 0.0153 µM
TGI (KM12 colon): 0.117 µM
TGI (UO-31 renal): 50.7 µM
TGI (SF-295 CNS): > 100 µM
TGI (LOX IMVI melanoma): > 100 µM
TGI (SK-MEL-28 melanoma): > 100 µM
